Assay results from US9775797B2, “Personal care composition” (Conopco, Inc., priority 2012, dated 2017).

Tested on: HaCaT and HeMnDP co-culture
Test: coculture melanin content assay (after Calcein-AM viability check)
Type: cell-based
Conditions: melanin content vs control, 72 hrs incubation
Procedure: The samples at various concentrations were analysed for skin lightening efficacy using the coculture melanin content assay, the details of which are given below: Set up of Co-cultures: • 1. 4*10^4 HaCaT and 4×10^4 […] (1:1) per well (single wells/treatment) in 12-well Nunc plates on Day 0 are seeded so as to establish a co-culture system. • 2. The volume of media per well should be 1 mL of a 1:1 mix of Melanocyte Growth Media and Keratinocyte Growth Media • 3. 24 hrs later, fresh media containing actives are added. Again 1 mL of a 1:1 mix of MGM and KGM for active addition are used. • 4. Plates are incubated for 72 hrs in a 37° C. CO2 incubator. • 5. […] In the meantime, the fluorescence is measured (excitation at 490 nm and emission at 520 nm) using TECAN instrument after 30 min of dye incubation. • 5. After reading the plate, the buffer containing Calcein is removed and melanin content assay is then carried out. […] After the reading for Calcein-AM is taken, the buffer containing Calcein-AM is removed from all the wells. • 2. […] The absorbance is measured in the Lab-5 Tecan instrument at 405 nm. • 6. For non-cytotoxic concentrations (based on Calcein cut-off of ±15% of control), the average MCA is calculated and reported as MCA as percentage of the control sample. The % inhibition is then calculated. […]

Row | SMILES | % Inhibition (sample concentration 0.5 ppm) [%] | inhibition at 14.2 ppm (Homo sapiens, HaCaT, sample concentration 14.2 ppm) [%]
1 | O=C1C[C@@H](c2ccc(O)c(O[C@@H]3O[C@H](CO)[C@@H](O)[C@H](O)[C@H]3O)c2)Oc2cc(O[C@@H]3O[C@H](CO)[C@@H](O)[C@H](O)[C@H]3O)ccc21 [Butrin, butrin] | 31 | 
2 | O=c1cc(CO)occ1O [Example 3, Kojic Acid] |  | 22
